Each structure is given as a SMILES string. In brackets after ≈: the same amount, converted by molar mass. Read-outs that look alike come from different tables or passages of the source.

The values that follow come from patent US20110045139A1, “FERMENTED SAUSAGE AND METHODS OF MAKING SAME” (priority 2009, published 2011).

Assay [1] concerns E. coli O157:H7 (5-strain cocktail). Description: microbe, parasite or virus in culture. The class given is cell-based, Escherichia coli O157:H7. To be noted: for MBC / Growth inhibition (p < 0.05): pH 5.5.
Assay [2] concerns E. coli O157:H7. To be noted: pH 4.9; cited from earlier work.
Assay [3] concerns Pediococcus pentosaceus. The experiment in a line: microbe, parasite or virus in culture. It is filed as cell-based. To be noted: pH 5.5.
The test system of assay [4] is Staphylococcus carnosus. Description: microbe, parasite or virus in culture. The class given is cell-based. To be noted: pH 5.5.
Assay [5] concerns E. coli O157:H7. Description: In vitro formation of isothiocyanates by myrosinase, viable counts. The class given is cell-based, Escherichia coli O157:H7. Particulars: glucosinolate 2.5 mM plus myrosinase 0.2 U/tube, MHB with sausage ingredients.
In assay [6] the test system is Escherichia coli, Staphylococcus aureus, Campylobacter jejuni, Pseudomonas aeruginosa, Salmonella Enteritidis, Listeria monocytogenes, Shigella boydii and …. Particulars: cited from earlier work.
The subject of assay [7] is E. coli O157:H7. The experiment in a line: Minimum inhibitory concentration at dry-cured sausage pH. It is filed as cell-based, Escherichia coli O157:H7. Particulars: pH 5.5.

With `C=CCN=C=S` [AIT, allyl isothiocyanate], the MBC is 1040 µM (≈ 103 µg/mL) in assay [1] (Escherichia coli, 18 h); 20800 µM (≈ 2060 µg/mL) in assay [3] (Pediococcus pentosaceus, 18 h); 1040 µM (≈ 103 µg/mL) in assay [4] (Staphylococcus carnosus, 18 h). Moreover, the “Growth inhibition (p < 0.05)” value is reported as 0.26 mM in assay [1], 10.40 mM in assay [3] and 0.26 mM in assay [4]. Moreover, the minimum inhibitory concentration in assay [2] is around 250 µM (≈ 24.8 µg/mL).

In the case of `OCc1ccc(O)cc1` [ρ-HBA, ρ-hydroxybenzyl alcohol], in assay [1], the “inhibitory activity against E. coli O157:H7” value is on record as “very weak” and the “Growth inhibition (p < 0.05)” value came to 20.14 mM.

As for `C=CCC(=NOS(=O)(=O)O)S[C@@H]1O[C@H](CO)[C@@H](O)[C@H](O)[C@H]1O` (stereo in doubt) [sinigrin], in assay [5], the “time after which E. coli was not detectable” value is 2 days.

Regarding `Oc1ccc(CN=C=S)cc1` [ρ-HBIT, ρ-hydroxybenzyl isothiocyanate], the bactericidal concentration in assay [6] is 0.35 to 2.13 mM. Moreover, the “Growth inhibition (p < 0.05)” value turned out to be 0.59 mM in assay [1], 1.48 mM in assay [3] and 0.3 mM in assay [4]. Also, the MBC in assay [1] came out at 1480 µM (≈ 245 µg/mL); in assay [3], 5920 µM (≈ 978 µg/mL); in assay [4] it was 590 µM (≈ 97.5 µg/mL). In assay [7], this compound displayed a minimum inhibitory concentration of around 600 µM (≈ 99.1 µg/mL).

Consider `O=S(=O)(O)O/N=C(/Cc1ccc(O)cc1)S[C@@H]1O[C@H](CO)[C@@H](O)[C@H](O)[C@H]1O` [sinalbin], for which the “time after which E. coli was not detectable” value in assay [5] is 3 days.
